Test results as given in ChEMBL document CHEMBL1153435, “Harnessing nature's insight: design of aspartyl protease inhibitors from treatment of drug-resistant HIV to Alzheimer's disease” (J Med Chem, 2009).
One block for each compound: values may come before it. *1 amine or outer side, *2 acyl side, *3 side chain or, on linkers, in order; H or OH if unused. Where a SMILES comes first, the peptide text is derived from it. [ ]: non-standard residue; d: D form. LeuΨ(S-CHOHCH2)Ala = CC(C)C[C@H](N[*:1])[C@@H](O)C[C@@H](C)C(=O)[*:2]

How the values were obtained:
[1] = system: Human immunodeficiency virus 1; assay: Antiviral activity against HIV1 assessed as inhibition of viral replication; format: functional, organism-based; conditions: for IC95: read-out: CIC95
[2] = system: Human immunodeficiency virus 1; assay: Antiviral activity against laboratory HIV1 strains and primary clinical isolates
Protease = Protease (Human immunodeficiency virus 1, UniProt Q9YQ12); assay: Inhibition of HIV1 protease
Beta-secretase 1 = Beta-secretase 1 (Homo sapiens, UniProt P56817); assay: Inhibition of recombinant memapsin 2
[3] = target: Protease (Human immunodeficiency virus 1) (UniProt Q9YQ12)
[4] = system: Human immunodeficiency virus 1; assay: Antiviral activity against protease inhibitor resistant HIV1 isolates; format: functional, organism-based
[5] = Oral bioavailability in HIV1 infected patient at 600 mg administered as single dose; format: ADME, organism-based; conditions: human, in vivo
[6] = read-out: ID50 (the source's name)

Chain of Protease (Q9YQ12 whole entry): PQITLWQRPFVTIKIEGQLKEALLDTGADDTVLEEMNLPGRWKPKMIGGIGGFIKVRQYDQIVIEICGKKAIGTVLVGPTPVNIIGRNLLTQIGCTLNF
Chain of Beta-secretase 1 (P56817 whole entry): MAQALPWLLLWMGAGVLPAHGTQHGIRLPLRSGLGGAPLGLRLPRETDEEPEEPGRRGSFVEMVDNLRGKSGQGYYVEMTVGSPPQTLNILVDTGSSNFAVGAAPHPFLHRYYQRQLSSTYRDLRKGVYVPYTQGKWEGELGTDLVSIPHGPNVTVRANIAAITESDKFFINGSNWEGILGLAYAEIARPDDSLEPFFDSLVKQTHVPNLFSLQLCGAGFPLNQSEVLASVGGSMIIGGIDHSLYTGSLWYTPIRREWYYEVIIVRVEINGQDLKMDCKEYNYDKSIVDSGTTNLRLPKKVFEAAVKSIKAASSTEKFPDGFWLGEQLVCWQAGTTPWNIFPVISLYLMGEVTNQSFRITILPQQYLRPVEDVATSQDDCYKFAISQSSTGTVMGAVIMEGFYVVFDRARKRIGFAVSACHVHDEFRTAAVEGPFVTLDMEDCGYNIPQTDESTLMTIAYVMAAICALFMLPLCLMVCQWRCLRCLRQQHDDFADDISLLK
Chain of Protease (Human immunodeficiency virus 1) (Q9YQ12 as listed by the source): as the sequence (Q9YQ12 whole entry) above

IC50 (Protease): 28 nM | Ki (Protease): 0.16 nM
SMILES: COc1ccc(S(=O)(=O)N(C[C@@H]2CCC(=O)N2)C[C@@H](O)[C@H](Cc2ccccc2)NC(=O)O[C@H]2CC[C@H]3OCC[C@@H]23)cc1

IC50 (Protease): 160 nM
SMILES: CC(C)(C)NC(=O)[C@@H]1C[C@@H]2CCCC[C@@H]2CN1C[C@@H](O)[C@H](Cc1ccccc1)NC(=O)O[C@H]1CCOC1
IC95 [1]: 0.8 µM

IC50 (Protease): 17 nM
SMILES: CC(C)(C)NC(=O)[C@@H]1C[C@@H]2CCCC[C@@H]2CN1C[C@@H](O)[C@H](Cc1ccccc1)NC(=O)O[C@H]1CC[C@H]2OCC[C@@H]12

Ki (Protease): 2.2 nM | IC50 [1, 6]: 4.5 nM
SMILES: COc1ccc(S(=O)(=O)N(CC(C)C)C[C@@H](O)[C@H](Cc2ccccc2)NC(=O)O[C@H]2COC3OCCC[C@@H]32)cc1 (single isomer, unassigned)

Ki (Protease): 1.4 nM | IC50 [1, 6]: 19 nM
SMILES: COc1ccc(S(=O)(=O)N(CC(C)C)C[C@@H](O)[C@H](Cc2ccccc2)NC(=O)O[C@H]2CCS(=O)(=O)C2)cc1

IC50 [1, 6]: 18 nM
SMILES: CC(C)(C)NC(=O)[C@@H]1C[C@@H]2CCCC[C@@H]2CN1C[C@@H](O)[C@H](Cc1ccccc1)NC(=O)[C@H](CC(N)=O)NC(=O)c1ccc2ccccc2n1

IC50 (Protease): 0.05 nM
SMILES: CC(C)(C)NC(=O)[C@@H]1C[C@@H]2CCCC[C@@H]2CN1C[C@@H](O)[C@H](Cc1ccccc1)NC(=O)[C@@H](NC(=O)c1ccc2ccccc2n1)[C@H]1CCOC1
IC95 [1]: 0.008 µM

IC50 (Protease): 0.3 nM
SMILES: O=C(N[C@@H](Cc1ccccc1)[C@@H](O)C[C@@H](Cc1ccccc1)C(=O)N[C@H]1c2ccccc2C[C@H]1O)OC1CCCC1
IC95 [1]: 0.4 µM

Ki (Protease): 3.7 nM | IC50 [1, 6]: 265 nM
SMILES: COc1ccc(S(=O)(=O)N(CC(C)C)C[C@@H](O)[C@H](Cc2ccccc2)NC(=O)O[C@H]2CC[C@]3(CCCO3)C2)cc1

IC50 (Protease): 76 nM
SMILES: CC(C)(C)NC(=O)[C@@H]1C[C@@H]2CCCC[C@@H]2CN1C[C@@H](O)[C@H](Cc1ccccc1)NC(=O)O[C@H]1CCS(=O)(=O)C1
IC95 [1]: 0.35 µM

Ki (Protease): 1.4 nM | IC50 [1, 6]: 17 nM
SMILES: COc1ccc(S(=O)(=O)N(CC(C)C)C[C@@H](O)[C@H](Cc2ccccc2)NC(=O)[C@@H]2CCCS(=O)(=O)C2)cc1

Continued, compound first:

SMILES: CC(C)CN(C[C@@H](O)[C@H](Cc1ccccc1)NC(=O)O[C@H]1CO[C@H]2OCC[C@H]21)S(=O)(=O)c1ccc(N)cc1
IC50 ([1]; read-out: IC50): 4.1 nM | IC90 [2]: 9 nM

SMILES: CC(C)CN(C[C@@H](O)[C@H](Cc1ccccc1)NC(=O)O[C@H]1CO[C@H]2OCC[C@H]21)S(=O)(=O)c1ccc2c(c1)OCO2
IC50 ([1]; read-out: IC50): 1.4 nM

SMILES: CC(C)(C)NC(=O)[C@@H]1C[C@@H]2CCCC[C@@H]2CN1C[C@@H](O)[C@H](Cc1ccccc1)NC(=O)O[C@H]1CO[C@H]2OCC[C@H]21
IC95 [1]: 0.046 µM

SMILES: COc1ccc(S(=O)(=O)N(CC(C)C)C[C@@H](O)[C@H](Cc2ccccc2)NC(=O)[C@@H]2CCO[C@]3(CCCO3)C2)cc1
Ki (Protease): 3.9 nM | IC50 [1, 6]: 1200 nM

SMILES: COc1ccc(S(=O)(=O)N(CC(C)C)C[C@@H](O)[C@H](Cc2ccccc2)NC(=O)[C@@H]2CCC[C@]3(CCCO3)C2)cc1
Ki (Protease): 2.9 nM

SMILES: O=C(N[C@@H](Cc1ccccc1)[C@@H](O)C[C@@H](Cc1ccccc1)C(=O)N[C@H]1c2ccccc2C[C@H]1O)O[C@H]1CCOC1
IC50 (Protease): < 0.03 nM | IC95 [1]: 0.003 µM

SMILES: CSCC[C@H](NC(=O)[C@@H](NC(=O)OC(C)(C)C)C(C)C)C(=O)N[C@@H](CC(C)C)[C@@H](O)C[C@@H](C)C(=O)N[C@H](C(=O)NCC(C)C)C(C)C
Ki (Beta-secretase 1): 0.8 nM

SMILES: CC(C)CN(C[C@@H](O)[C@H](Cc1ccccc1)NC(=O)O[C@H]1CCOC1)S(=O)(=O)c1ccc(N)cc1
Ki (Protease): 0.6 nM | IC90 [3]: 40 nM

SMILES: COc1ccc(S(=O)(=O)N(CC(C)C)C[C@@H](O)[C@H](Cc2ccccc2)NC(=O)O[C@H]2CC[C@H]3OCO[C@@H]23)cc1
IC50 (Protease): 3.8 nM | Ki (Protease): 0.11 nM

SMILES: COc1ccc(S(=O)(=O)N(CC(C)C)C[C@@H](O)[C@H](Cc2ccccc2)NC(=O)O[C@H]2CO[C@@H]3OCC[C@@H]32)cc1
IC50 ([1]; read-out: IC50): 4.1 nM

SMILES: COc1ccc(S(=O)(=O)N(CC(C)C)C[C@@H](O)[C@H](Cc2ccccc2)NC(=O)O[C@H]2CO[C@H]3OCC[C@H]32)cc1
IC50 [4]: 0.5 nM

SMILES: CC(C)c1nc(CN(C)C(=O)N[C@H](C(=O)N[C@@H](Cc2ccccc2)C[C@H](O)[C@H](Cc2ccccc2)NC(=O)OCc2cncs2)C(C)C)cs1 [RITONAVIR]
bioavailability [5]: 37%

SMILES: CC(C)C[C@H](NC(=O)[C@H](CC(N)=O)NC(=O)[C@@H](N)C(C)C)[C@@H](O)C[C@@H](C)C(=O)N[C@@H](C)C(=O)N[C@@H](CCC(=O)O)C(=O)N[C@@H](Cc1ccccc1)C(=O)O (H-VN[LeuΨ(S-CHOHCH2)Ala]AEF-OH)
Ki (Beta-secretase 1): 6.8 nM

SMILES: COc1ccc(S(=O)(=O)N(CC(C)C)C[C@@H](O)[C@H](Cc2ccccc2)NC(=O)O[C@@H]2CCOCOC2)cc1
IC50 (Protease): 5 nM
